Source: PubChem BioAssay AID328 (DTP/NCI, 2004)
Values joined by “and” are separate entries in the source; they are usually repeats but may differ in a detail not shown here. Identical values can stand only once. Toxic doses and inconclusive results are not listed. The calls were made as follows: active = survival T/C of 150% or more; inactive = T/C below 125% in these data.

Test system: BDF1 mice, P388 leukemia ip, median survival T/C
Experiment: NCI In Vivo Anticancer Drug Screen. Data for tumor model P388 Leukemia (intraperitoneal) in B6D2F1 (BDF1) mice
Conditions: endpoint: median survival time, higher = longer survival
How it was run: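 Reported as T/C, where T is the survival measurement in dosed animals and C the same measurement in vehicle controls.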

[1] = dose: 100.0 mg/kg/injection, schedule: Q01DX009 (ip), vehicle: Klucel (hydroxypropylcellulose) (HPC)
[2] = dose: 200.0 mg/kg/injection, schedule: Q01DX009 (ip), vehicle: Klucel (hydroxypropylcellulose) (HPC)
[3] = dose: 100.0 mg/kg/injection, schedule: Q04DX003 (ip), vehicle: Klucel (hydroxypropylcellulose) (HPC)
[4] = dose: 200.0 mg/kg/injection, schedule: Q04DX003 (ip), vehicle: Klucel (hydroxypropylcellulose) (HPC)
[5] = dose: 400.0 mg/kg/injection, schedule: Q04DX003 (ip), vehicle: Klucel (hydroxypropylcellulose) (HPC)
[6] = dose: 50.0 mg/kg/injection, schedule: Q01DX009 (ip), vehicle: water
[7] = dose: 100.0 mg/kg/injection, schedule: Q01DX009 (ip), vehicle: water
[8] = dose: 50.0 mg/kg/injection, schedule: Q01DX009 (ip), vehicle: saline
[9] = dose: 100.0 mg/kg/injection, schedule: Q01DX009 (ip), vehicle: saline
[10] = dose: 100.0 mg/kg/injection, schedule: Q01DX001 (ip), vehicle: saline with Tween-80
[11] = dose: 200.0 mg/kg/injection, schedule: Q01DX001 (ip), vehicle: saline with Tween-80
[12] = dose: 400.0 mg/kg/injection, schedule: Q01DX001 (ip), vehicle: saline with Tween-80
[13] = dose: 50.0 mg/kg/injection, schedule: Q01DX009 (ip), vehicle: saline with Tween-80
[14] = dose: 100.0 mg/kg/injection, schedule: Q01DX009 (ip), vehicle: saline with Tween-80
[15] = dose: 200.0 mg/kg/injection, schedule: Q01DX009 (ip), vehicle: saline with Tween-80

Measured: T/C

Nc1nc(N)nc(N)n1
inactive: [1] 90 % of control | [2] 90 % of control | dose: 400.0 mg/kg/injection, schedule: Q01DX009 (ip), vehicle: Klucel (hydroxypropylcellulose) (HPC) 100 % of control | dose: 800.0 mg/kg/injection, schedule: Q01DX009 (ip), vehicle: Klucel (hydroxypropylcellulose) (HPC) 100 % of control | dose: 2000.0 mg/kg/injection, schedule: Q01DX009 (ip), vehicle: Klucel (hydroxypropylcellulose) (HPC) 95 % of control

O=C(Cn1ccc(=O)[nH]c1=O)c1ccc([N+](=O)[O-])o1
inactive: dose: 25.0 mg/kg/injection, schedule: Q04DX003 (ip), vehicle: saline 109 % of control | dose: 50.0 mg/kg/injection, schedule: Q04DX003 (ip), vehicle: saline 100 % of control

O=C(Nc1ccccc1)Oc1ccc(Cl)cc1
inactive: [3] 104 % of control | [4] 95 % of control | [5] 109 % of control

COC1OCC(N=[N+]=[N-])C2OC12 (stereo not drawn)
inactive: dose: 25.0 mg/kg/injection, schedule: Q01DX009 (ip), vehicle: water 96 % of control | [6] 102 % of control | [7] 119 % of control | dose: 200.0 mg/kg/injection, schedule: Q01DX009 (ip), vehicle: water 102 % of control

CCCC[N+](CCCC)(CCCC)CCCC.Cc1ccc([SH2+])c([SH2+])c1.Cc1ccc([SH2+])c([SH2+])c1.[Fe+3]
inactive: dose: 45.0 mg/kg/injection, schedule: Q04DX003 (ip), vehicle: Klucel (hydroxypropylcellulose) (HPC) 109 % of control | dose: 65.0 mg/kg/injection, schedule: Q04DX003 (ip), vehicle: Klucel (hydroxypropylcellulose) (HPC) 118 % of control | dose: 100.0 mg/kg/injection, schedule: Q01DX001 (ip), vehicle: other 112 % of control | dose: 150.0 mg/kg/injection, schedule: Q04DX003 (ip), vehicle: Klucel (hydroxypropylcellulose) (HPC) 118 % of control | dose: 200.0 mg/kg/injection, schedule: Q01DX001 (ip), vehicle: other 112 % of control | [4] 90 % of control and 120 % of control | dose: 400.0 mg/kg/injection, schedule: Q01DX001 (ip), vehicle: other 108 % of control | [5] 120 % of control

CCN(CC)CCCNC(C)CCCN(CC)CC (stereo not drawn)
inactive: [6] 103 % of control | [7] 98 % of control | dose: 100.0 mg/kg/injection, schedule: Q04DX003 (ip), vehicle: water 102 % of control | dose: 200.0 mg/kg/injection, schedule: Q04DX003 (ip), vehicle: water 100 % of control

O=C(O)c1cc(O)c(O)c(O)c1
inactive: dose: 1.25 mg/kg/injection, schedule: Q01DX009 (ip), vehicle: saline 90 % of control | dose: 2.5 mg/kg/injection, schedule: Q01DX009 (ip), vehicle: saline 95 % of control | dose: 5.0 mg/kg/injection, schedule: Q01DX009 (ip), vehicle: saline 95 % of control | dose: 10.0 mg/kg/injection, schedule: Q01DX009 (ip), vehicle: saline 115 % of control | dose: 10.0 mg/kg/injection, schedule: Q01DX010 (ip), vehicle: saline 110 % of control | dose: 20.0 mg/kg/injection, schedule: Q01DX010 (ip), vehicle: saline 100 % of control | dose: 40.0 mg/kg/injection, schedule: Q01DX010 (ip), vehicle: saline 90 % of control | [8] 100 % of control | [9] 100 % of control | dose: 200.0 mg/kg/injection, schedule: Q01DX009 (ip), vehicle: saline 104 % of control

O=C(Nc1ccc2ccccc2c1)c1ccccc1
inactive: dose: 100.0 mg/kg/injection, schedule: Q01DX001 (ip), vehicle: saline sonified 95 % of control | dose: 200.0 mg/kg/injection, schedule: Q01DX001 (ip), vehicle: saline sonified 100 % of control | dose: 400.0 mg/kg/injection, schedule: Q01DX001 (ip), vehicle: saline sonified 100 % of control

CCC1CC2CN(CCc3c([nH]c4ccccc34)C(C(=O)OC)(c3cc4c(cc3OC)N(C)C3C(O)(C(=O)OC)C(OC(C)=O)C5(CC)C=CCN6CCC43C65)C2)C1 (stereo not drawn)
inactive: dose: 0.06 mg/kg/injection, schedule: Q01DX009 (ip), vehicle: water 90 % of control | dose: 0.12 mg/kg/injection, schedule: Q01DX009 (ip), vehicle: water 90 % of control and 100 % of control | dose: 0.25 mg/kg/injection, schedule: Q01DX009 (ip), vehicle: water 95 % of control and 100 % of control | dose: 0.5 mg/kg/injection, schedule: Q01DX009 (ip), vehicle: water 90 % of control and 100 % of control | dose: 1.0 mg/kg/injection, schedule: Q01DX009 (ip), vehicle: water 90 % of control and 95 % of control and 100 % of control | dose: 2.0 mg/kg/injection, schedule: Q01DX009 (ip), vehicle: water 90 % of control and 95 % of control | dose: 4.0 mg/kg/injection, schedule: Q01DX009 (ip), vehicle: water 100 % of control | dose: 8.0 mg/kg/injection, schedule: Q01DX009 (ip), vehicle: water 100 % of control and 90 % of control

Cc1ccc(NC(=O)C(C)(C)C)c(C(O)(C(F)(F)F)C(F)(F)F)c1
inactive: [10] 99 % of control | [11] 106 % of control | [12] 99 % of control

O=C1OC(O)(c2ccccc2)C(c2ccccc2)=C1c1ccccc1 (stereo not drawn)
inactive: [13] 119 % of control | [14] 110 % of control | [15] 108 % of control

C=C1C(=O)OC2CC(C)C3(O)CCC(C)(CC(OC(=O)C(C)C)C12)O3 (stereo not drawn)
inactive: dose: 40.0 mg/kg/injection, schedule: Q01DX009 (ip), vehicle: saline 100 % of control | dose: 50.0 mg/kg/injection, schedule: Q01DX009 (ip), vehicle: Klucel (hydroxypropylcellulose) (HPC) 117 % of control | [1] 117 % of control and 118 % of control

c1ccc(CSSCc2ccccc2)cc1
inactive: dose: 75.0 mg/kg/injection, schedule: Q01DX009 (ip), vehicle: Klucel (hydroxypropylcellulose) (HPC) 104 % of control | [1] 90 % of control | [3] 100 % of control | dose: 150.0 mg/kg/injection, schedule: Q01DX009 (ip), vehicle: Klucel (hydroxypropylcellulose) (HPC) 100 % of control | [2] 86 % of control | [4] 95 % of control | dose: 300.0 mg/kg/injection, schedule: Q01DX009 (ip), vehicle: Klucel (hydroxypropylcellulose) (HPC) 90 % of control | [5] 95 % of control

N=C(N)N.O=S(=O)(O)[O][Al]1[O]S(=O)(=O)[O]1
inactive: dose: 25.0 mg/kg/injection, schedule: Q01DX009 (ip), vehicle: saline 87 % of control | [8] 100 % of control | [9] 95 % of control

OCC12CCCCC1CC1(CC2)OCCO1 (stereo not drawn)
inactive: [9] 92 % of control | dose: 100.0 mg/kg/injection, schedule: Q04DX003 (ip), vehicle: saline with Tween-80 95 % of control | dose: 200.0 mg/kg/injection, schedule: Q04DX003 (ip), vehicle: saline with Tween-80 90 % of control | dose: 400.0 mg/kg/injection, schedule: Q01DX009 (ip), vehicle: saline 96 % of control | dose: 400.0 mg/kg/injection, schedule: Q04DX003 (ip), vehicle: saline with Tween-80 90 % of control

CCCCCCCN1C=CCC(S(=O)(=O)N2CCOCC2)=C1
inactive: [13] 109 % of control | [14] 99 % of control | [15] 109 % of control

O=C1C=C(Nc2ccc(Cl)cc2)C(Nc2ccc(Cl)cc2)=CC1=O
inactive: dose: 62.5 mg/kg/injection, schedule: Q01DX009 (ip), vehicle: saline with Tween-80 89 % of control | dose: 125.0 mg/kg/injection, schedule: Q01DX009 (ip), vehicle: saline with Tween-80 87 % of control | dose: 250.0 mg/kg/injection, schedule: Q01DX009 (ip), vehicle: saline with Tween-80 91 % of control

CC(C)=CC=O
inactive: [10] 100 % of control | [11] 96 % of control | [12] 100 % of control

CC[N-]c1nnnn1CC.[Au+].c1ccc([PH+](c2ccccc2)c2ccccc2)cc1
inactive: dose: 12.5 mg/kg/injection, schedule: Q01DX001 (ip), vehicle: saline with Tween-80 100 % of control | dose: 25.0 mg/kg/injection, schedule: Q01DX001 (ip), vehicle: saline with Tween-80 111 % of control
